Experimental data as given in paper PMC10671498, “Antiproliferative and Cytotoxic Properties of Propynoyl Betulin Derivatives against Human Ovarian Cancer Cells: In Vitro Studies” (International Journal of Molecular Sciences, 2023).

Legend:
SK-OV-3 cells [1] = assay: Cell morphology, acridine orange staining; assay type: cell-based, human; conditions: SK-OV-3, 24 h, 30 µM
Procedure: Acridine orange staining was preceded by preparation of a cell culture at a density 1 × 10^5 per well in a 24-well glass bottom plate (NEST Biotechnology, Wuxi, China). Cells were cultured for 24 h in a standard medium (1 mL), after which the medium was replaced with a new medium containing 10 µM and 30 µM of the test compounds or with 0.2% DMSO (control). Cells were incubated in the presence of test substances for 24 h in a CO2 incubator. To each of the test wells, acridine orange dissolved in PBS (the final concentration was 1 µg/mL) was added and incubated for 5 min in a CO2 incubator. After incubation, the cells were observed under a Nikon Eclipse TS-100F microscope (Nikon Instruments Europe, Amstelveen, The Netherlands). The photographs were taken with a Nikon DS-Fi1 digital camera, supported by the NIS-Elements application.

OVCAR-3 cells = assay: LDH release assay, OVCAR-3; assay type: cell-based, human; conditions: OVCAR-3, 24 h
Procedure: (§1) In order to evaluate the cytotoxic effect, the release of LDH into the culture medium using the In Vitro Toxicology Assay Kit, Lactic Dehydrogenase Based (TOX7; Sigma Aldrich) was assessed. SK-OV-3 and OVCAR-3 cells were plated and cultured in 96-well plates (Greiner Bio-One) at the initial density of 5 × 10^3 cells per well in 100 µL of culture medium. The density of the cells was determined in the same manner as in the SRB assay. After 24 h, the media were replaced with the working solutions, which contained appropriate test compounds at concentrations of 3 μM, 10 μM, 30 μM, and control medium (0.2% DMSO). Cells were exposed to the test substances for 24 h. The background control comprised wells without cells with only control medium. To determine the maximal LDH release (high control), half of the control cultures were treated with lysis buffer. Wells with untreated cells were used as the low control of the assay. LDH activity in media was assessed according to the manufacturer’s protocol. The absorbance was measured at wavelengths of 490 nm and 690 nm (background), and the percentage of released enzyme was calculated for cells growing in the presence of compounds according to the formula:Cytotoxicity [%] = [(AT − AL)/(AH − AL)] × 100 where AT is the absorbance of treated wells; AL is low control; and AH is high control (maximal LDH release).
(§2) Cytotoxicity was expressed as a percentage of the released LDH calculated according to the difference between the absorbance of the treated and low control wells divided by the difference between the absorbance of the high control and low control wells.

SK-OV-3 cells [2] = assay: TMRM analysis of mitochondrial membrane potential; assay type: cell-based, human; conditions: SK-OV-3, 3 h, 30 µM
Procedure: Tetramethylrhodamine methyl ester (Sigma Aldrich) was used for the assessment of changes in the transmembrane potential of mitochondria. TMRM is a fluorescent cationic dye accumulating in mitochondria in a potential-dependent manner. Cell cultures were prepared as described above for acridine orange staining. Cells were exposed to test solutions for 3 h, and then TMRM was added (final concentration 100 nM) followed by incubation for 30 min in the CO2 incubator. Prior to observation, the plates were centrifuged (250× g, 5 min), and the medium was changed to PBS. The cells were analyzed under the Nikon Eclipse TS-100F microscope and photographed.

T47D cell line = system: T47D cell line; design: method as in PMID 33572631; conditions: cited from earlier work
C32 cell line = system: C32 cell line; design: method as in PMID 33572631; conditions: cited from earlier work
SK-OV-3 cells [3] = assay: Plasma membrane permeability (DNA-histone complexes in culture medium); assay type: cell-based, human; conditions: SK-OV-3, 24 h, with 5 µM cyclosporin A added 30 min before
Procedure: Fragmentation of genomic DNA was determined by means of the Cell Death Detection ELISAPLUS kit (Roche, Basel, Switzerland). This method rests on the immunoenzymatic detection of DNA–histone complexes in the cytoplasmic cell fraction or cell culture supernatants. Cells were plated and cultured in 96-well plates (Greiner Bio-One) at the initial density of 5 × 10^3 cells per well in 100 µL of culture medium. Cells were allowed to attach and grow for 1 day prior to the addition of test reagents. Then, the media were replaced with the working solutions (3 µM, 10 µM, 30 µM), and cells were exposed to compounds 2–6 for 24 h. In some cases, 5 µM cyclosporin A (CsA, an inhibitor of the mitochondrial permeability transition) was added to the cells 30 min before treatment with the betulin derivative. Subsequently, cells were incubated concomitantly with both compounds. […] In one experiment, the presence of mono- and oligonucleosomes was determined in 20 µL samples of centrifuged culture supernatants (media) to detect the permeability of plasma membrane (considered as an indicator of cell necrosis). […] Absorbance was measured at 405 nm and 490 nm (reference wavelength), and the enrichment factor of the cytoplasmic (or supernatant) fraction in mono- and oligonucleosomes was calculated according to the formula: EF = absorbance of sample cells/absorbance of control cells.

SNB-19 cell line = system: SNB-19 cell line; design: method as in PMID 33572631; conditions: cited from earlier work
SK-OV-3 cells [4] = assay: LDH release assay, SK-OV-3; assay type: cell-based, human; conditions: SK-OV-3, 24 h, 10 μM and 30 μM
Procedure: as §1, §2

In the case of `C=C(C)[C@@H]1CC[C@]2(CO)CC[C@]3(C)[C@H](CC[C@@H]4[C@@]5(C)CC[C@H](O)C(C)(C)[C@@H]5CC[C@]43C)[C@@H]12` [Compound 1, lup-20(29)-ene-3β,28-diol, reference compound], the “cell morphology (acridine orange)” value (SK-OV-3 cells [1]) is reported as “typical apoptotic morphology” and the “cytotoxicity (released LDH), loss of cell membrane integrity” value (OVCAR-3 cells; 30 µM) is reported as “loss of cell membrane integrity was also confirmed”.

For `C#CC(=O)OC[C@]12CC[C@@H](/C(C)=C/P(=O)(OCC)OCC)C1C1CCC3[C@@]4(C)CC[C@H](O)C(C)(C)C4CC[C@@]3(C)[C@]1(C)CC2` (stereo partly drawn) [Compound 6, E-29-diethoxyphosphoryl-28-O-propynoylbetulin], the “mitochondrial membrane potential (TMRM fluorescence)” value (SK-OV-3 cells [2]) is listed as “reduced the mitochondrial membrane potential”, the IC50 (T47D cell line) is listed as 700 nM and the IC50 (C32 cell line) is listed as 600 nM. The “effect of CsA on compound-induced cell death, plasma membrane permeability” value (SK-OV-3 cells [3]) was “almost completely prevented”, the “cytotoxicity (released LDH)” value (OVCAR-3 cells; all concentrations (3, 10, 30 μM)) was “significant cytotoxic activity” and the IC50 (SNB-19 cell line) was 430 nM. For the same compound, the “cytotoxicity (released LDH)” value (SK-OV-3 cells [4]) was “most cytotoxic agent”.
